Consider three compounds from USRE38117E1, “Trioxane dimer compound having antiproliferative and antitumor activities” (Hauser, Inc., priority 1995, dated 2003).

Each structure is given as a SMILES string.

One data set concerns DU-145. The experiment in a line: NCI 60 cell line screen (SRB), Prostate Cancer. The data set is classed as cell-based. Conditions: DU-145 (Prostate Cancer).
The subject of a further data set is 60 cell line panel. The settings on record: cell line panels consisting of 60 lines; cited from earlier work.
The test system of data set [1] is Ehrlich ascites tumor (EAT) cells. The settings on record: MTT assay, Woerdenbag et al. 1993; cited from earlier work.
The next data set has as its system P. berghei. Conditions: P. berghei-infected mice; Klayman 1985; cited from earlier work.
The subject of another data set is P388 leukemia. The settings on record: NCI Report on NSC 369397; cited from earlier work.
The test system of data set [2] is Plasmodium vivax and Plasmodium falciparum. The settings on record: 2099 cases of malaria, different dosage forms of QHS; 1979 study; cited from earlier work.
Another data set has as its system P. falciparum. The settings on record: two Hanian strains; Ye et al. 1983; cited from earlier work.
For data set [3] the following is noted: cited from earlier work.
The nature of data set [4]: Stability at room temperature. Type of data set: physicochemical. Conditions: crystalline solid.

As to `CC(=O)O[C@H]1C(=O)[C@@]2(C)[C@H]([C@H](OC(=O)c3ccccc3)[C@]3(O)C[C@H](OC(=O)[C@H](O)[C@@H](NC(=O)c4ccccc4)c4ccccc4)C(C)=C1C3(C)C)[C@]1(OC(C)=O)CO[C@@H]1C[C@@H]2O` [Paclitaxel, paclitaxel, reference compound], in the data set with DU-145, the Log10GI50 is given as −9.38 M, the Log10LC50 was above −4.00 M and the Log10TGI is listed as above −4.00 M.
On to `C[C@@H]1CC[C@H]2[C@@H](C)C(=O)O[C@@H]3O[C@@]4(C)CC[C@@H]1[C@]32OO4` [QHS, 3,6,9-trimethyl-9,10b-epidioxyperhydropyrano[4,3,2-jk]benzoxepin-2-one, reference compound], for which the anticancer activity result in the data set on 60 cell line panel is “very little anticancer activity”. The “ID50 / IC50 (drug concentration causing 50% growth inhibition of the tumor cells)” value in data set [1] was 29.8 µM. Besides, in the data set with P. berghei, the “SD90 (parasitemia 90 percent suppressed)” value is 6.20 mg/kg. Also, in the data set on P388 leukemia, the “activity against P388 leukemia” value was “inactive”. The clinical outcome in [2] is “clinical cure of all patients”. The “potency in vitro compared with chloroquine” value in the data set on P. falciparum is recorded as “comparable to that of chloroquine”. In data set [3], the solubility in water result is “insolubility in water”.
In the data set on DU-145, `COC1OC2(C)CCC3CCCC(CCOC(=O)c4cccc(C(=O)OCCC5CCCC6CCC7(C)OOC56C(OC)O7)c4)C31OO2` (centres unmarked) [Compound 10, Trioxane Bis-ester Dimer] gave a Log10GI50 of −4.53 M, a Log10LC50 above −4.30 M and a Log10TGI above −4.30 M. Besides, in data set [4], the stability result is “stable for prolonged periods at room temperature”.
